The values that follow come from paper PMC4515504 (Evidence-based Complementary and Alternative Medicine : eCAM, 2015).

This assay relates to T1, alpha-glucosidase (from Bacillus stearothermophilus).
T1 construct: gene maltase
The experiment in a line: pNPG hydrolysis, Lineweaver-Burk plot. Type of assay: biochemical, Geobacillus stearothermophilus. The following applies: control without extract; pNPG 0.08-5 mg/mL, 37°C, 20 min; unreliable: Km extrapolated above the tested substrate range. The text has this: pNPG hydrolysis, Lineweaver-Burk plot on alpha-glucosidase (from Bacillus stearothermophilus)

Take `O=[N+]([O-])c1ccc(O[C@H]2O[C@H](CO)[C@@H](O)[C@H](O)[C@H]2O)cc1` [p-nitrophenyl glucopyranoside]: the “Alpha-glucosidase / K m” value is recorded as 17.39 mg/mL.
